Assays:
Botrytis cinerea = assay: Effectiveness on Botrytis cinerea; assay type: in vivo; settings: at 330 ppm; comparison compounds of WO 01/11965
Alternaria brassicae = assay: In vivo test on Alternaria brassicae (leaf spot of crucifers); settings: at 330 ppm; comparison compounds of WO 01/11965
Experimental: The active ingredient tested is prepared by potter homogenisation in a concentrated suspension type formulation at 100 g/l. This suspension is then diluted with water to obtain the desired active material concentration.
Radish plants (Pernot variety) in starter cups, sown on a 50/50 peat soil-pozzolana substrate and grown at 18-20° C., are treated at the cotyledon stage by spraying with the aqueous suspension described above.
Plants, used as controls, are treated with an aqueous solution not containing the active material.
After 24 hours, the plants are contaminated by spraying them with an aqueous suspension of Alternaria brassicae spores (40,000 spores per cm^3). The spores are collected from a 12-13-day-old culture.
The contaminated radish plants are incubated for 6-7 days at about 18° C., under a humid atmosphere.
Grading is carried out 6 to 7 days after the contamination, in comparison with the control plants.

Peronospora parasitica = assay: Efficacy against Peronospora parasitica; assay type: in vivo; settings: at 330 ppm; comparison compound of WO 01/11965

melting point	SMILES	effectiveness on Botrytis cinerea (Botrytis cinerea)	effectiveness on Alternaria brassicae (Alternaria brassicae)	efficacy against Peronospora parasitica (Peronospora parasitica)
–	CCNC(=O)C(Cc1ncc(C(F)(F)F)cc1Cl)NC(=O)c1ccccc1Br (stereo not shown) [compound 310, N-{1-ethylcarbamoyl-2-[3-chloro-5-(trifluoromethyl)-2-pyridinyl]ethyl}-2-bromobenzamide]	zero effectiveness	–	–
–	CCNC(=O)C(Cc1ncc(C(F)(F)F)cc1Cl)NC(=O)c1cccc([N+](=O)[O-])c1 (stereo not shown) [compound 307, N-{1-ethylcarbamoyl-2-[3-chloro-5-(trifluoromethyl)-2-pyridinyl]ethyl}-3-nitrobenzamide]	zero effectiveness	poor effectiveness	–
–	O=C(Cc1cccs1)NCc1ncc(C(F)(F)F)cc1Cl [compound 101, N-{[3-chloro-5-(trifluoromethyl)-2-pyridinyl]methyl}-5-thienylacetamide]	no efficacy	poor efficacy	no efficacy
–	CCNC(=O)C(Cc1ncc(C(F)(F)F)cc1Cl)NC(=O)c1ccccc1 (stereo not shown) [compound 304, N-{1-ethylcarbamoyl-2-[3-chloro-5-(trifluoromethyl)-2-pyridinyl]-ethyl}-benzamide]	zero effectiveness	–	–
–	CNC(=O)C(Cc1ncc(C(F)(F)F)cc1Cl)NC(=O)c1ccc(-c2ccccc2)cc1 (stereo not shown) [compound 316, N-{1-methylcarbamoyl-2-[3-chloro-5-(trifluoromethyl)-2-pyridinyl]-ethyl}-4-phenylbenzamide]	zero effectiveness	poor effectiveness	–
192 °C	O=C(NCC(C(=O)O)c1nc(F)c(Cl)cc1F)c1sccc1I (stereo not shown) [Compound A-3]	–	–	–
–	CNC(=O)C(Cc1ncc(C(F)(F)F)cc1Cl)NC(=O)c1ccc(OC)cc1 (stereo not shown) [compound 315, N-{1-methylcarbamoyl-2-[3-chloro-5-(trifluoromethyl)-2-pyridinyl]ethyl}-4-methoxybenzamide]	zero effectiveness	–	–
–	CCNC(=O)C(Cc1ncc(C(F)(F)F)cc1Cl)NC(=O)c1ccc(Cl)cc1 (stereo not shown) [compound 306, N-{1-ethylcarbamoyl-2-[3-chloro-5-(trifluoromethyl)-2-pyridinyl]-ethyl}-4-chlorobenzamide]	zero effectiveness	–	–
–	CNC(=O)C(Cc1ncc(C(F)(F)F)cc1Cl)NC(=O)c1ccccc1 (stereo not shown) [compound 314, N-{1-methylcarbamoyl-2-[3-chloro-5-(trifluoromethyl)-2-pyridinyl]ethyl}-benzamide]	zero effectiveness	–	–

— US7723363B2, “2-pyridinylethylcarboxamide derivatives and their use as fungicides” (Bayer Cropscience SA, priority 2004, dated 2010)
